# Measured values as given in the OligoGym collection.
# Oligonucleotides are written 5' to 3', each unit as a sugar letter and its base; * is a phosphorothioate linkage, no mark a phosphodiester; rarer units and linkages stand in square brackets, end groups in braces. Plain capitals give the bases only. Oligonucleotides are given in HELM: sugar(base)linkage, 5' to 3'; d 2'-deoxyribose, r ribose, m 2'-O-methylribose, p phosphate. ss, as = sense and antisense strand; d = 2'-deoxy (DNA); r = 2'-OH (RNA)
# Biological target: UBE2K
# Experiment: reporter assay of Huesken 2005
# Details: siRNA
# Note: test concentration or dose not given here.
row,Substance,normalised inhibition (eCFP-eYFP dual reporter) [%]
1,RNA1{r(A)p.r(A)p.r(A)p.r(A)p.r(U)p.r(A)p.r(U)p.r(G)p.r(G)p.r(C)p.r(A)p.r(U)p.r(C)p.r(C)p.r(U)p.r(A)p.r(A)p.r(U)p.r(A)p.d(T)p.d(T)}|RNA2{r(U)p.r(A)p.r(U)p.r(U)p.r(A)p.r(G)p.r(G)p.r(A)p.r(U)p.r(G)p.r(C)p.r(C)p.r(A)p.r(U)p.r(A)p.r(U)p.r(U)p.r(U)p.r(U)p.d(A)p.d(G)}$$$RNA1{StrandType:ss}|RNA2{StrandType:as}$,67.3
2,RNA1{r(A)p.r(A)p.r(A)p.r(U)p.r(A)p.r(G)p.r(C)p.r(A)p.r(G)p.r(G)p.r(A)p.r(C)p.r(C)p.r(U)p.r(C)p.r(C)p.r(A)p.r(G)p.r(A)p.d(T)p.d(T)}|RNA2{r(U)p.r(C)p.r(U)p.r(G)p.r(G)p.r(A)p.r(G)p.r(G)p.r(U)p.r(C)p.r(C)p.r(U)p.r(G)p.r(C)p.r(U)p.r(A)p.r(U)p.r(U)p.r(U)p.d(C)p.d(T)}$$$RNA1{StrandType:ss}|RNA2{StrandType:as}$,65.4
3,RNA1{r(A)p.r(A)p.r(A)p.r(U)p.r(C)p.r(C)p.r(C)p.r(G)p.r(A)p.r(A)p.r(A)p.r(U)p.r(G)p.r(U)p.r(U)p.r(C)p.r(A)p.r(A)p.r(A)p.d(T)p.d(T)}|RNA2{r(U)p.r(U)p.r(U)p.r(G)p.r(A)p.r(A)p.r(C)p.r(A)p.r(U)p.r(U)p.r(U)p.r(C)p.r(G)p.r(G)p.r(G)p.r(A)p.r(U)p.r(U)p.r(U)p.d(T)p.d(G)}$$$RNA1{StrandType:ss}|RNA2{StrandType:as}$,73.8
4,RNA1{r(A)p.r(A)p.r(G)p.r(G)p.r(A)p.r(G)p.r(G)p.r(A)p.r(A)p.r(G)p.r(A)p.r(U)p.r(A)p.r(C)p.r(C)p.r(A)p.r(A)p.r(C)p.r(U)p.d(T)p.d(T)}|RNA2{r(A)p.r(G)p.r(U)p.r(U)p.r(G)p.r(G)p.r(U)p.r(A)p.r(U)p.r(C)p.r(U)p.r(U)p.r(C)p.r(C)p.r(U)p.r(C)p.r(C)p.r(U)p.r(U)p.d(C)p.d(A)}$$$RNA1{StrandType:ss}|RNA2{StrandType:as}$,68.1
5,RNA1{r(A)p.r(A)p.r(G)p.r(U)p.r(A)p.r(G)p.r(A)p.r(U)p.r(C)p.r(U)p.r(U)p.r(G)p.r(U)p.r(A)p.r(G)p.r(A)p.r(U)p.r(G)p.r(A)p.d(T)p.d(T)}|RNA2{r(U)p.r(C)p.r(A)p.r(U)p.r(C)p.r(U)p.r(A)p.r(C)p.r(A)p.r(A)p.r(G)p.r(A)p.r(U)p.r(C)p.r(U)p.r(A)p.r(C)p.r(U)p.r(U)p.d(T)p.d(A)}$$$RNA1{StrandType:ss}|RNA2{StrandType:as}$,88.9
6,RNA1{r(A)p.r(A)p.r(U)p.r(A)p.r(G)p.r(C)p.r(A)p.r(G)p.r(G)p.r(A)p.r(C)p.r(C)p.r(U)p.r(C)p.r(C)p.r(A)p.r(G)p.r(A)p.r(C)p.d(T)p.d(T)}|RNA2{r(G)p.r(U)p.r(C)p.r(U)p.r(G)p.r(G)p.r(A)p.r(G)p.r(G)p.r(U)p.r(C)p.r(C)p.r(U)p.r(G)p.r(C)p.r(U)p.r(A)p.r(U)p.r(U)p.d(T)p.d(C)}$$$RNA1{StrandType:ss}|RNA2{StrandType:as}$,56.1
7,RNA1{r(A)p.r(C)p.r(A)p.r(G)p.r(G)p.r(A)p.r(U)p.r(G)p.r(C)p.r(U)p.r(G)p.r(U)p.r(A)p.r(G)p.r(U)p.r(A)p.r(G)p.r(C)p.r(A)p.d(T)p.d(T)}|RNA2{r(U)p.r(G)p.r(C)p.r(U)p.r(A)p.r(C)p.r(U)p.r(A)p.r(C)p.r(A)p.r(G)p.r(C)p.r(A)p.r(U)p.r(C)p.r(C)p.r(U)p.r(G)p.r(U)p.d(G)p.d(G)}$$$RNA1{StrandType:ss}|RNA2{StrandType:as}$,89.9
8,RNA1{r(A)p.r(C)p.r(U)p.r(A)p.r(A)p.r(A)p.r(A)p.r(U)p.r(A)p.r(U)p.r(G)p.r(G)p.r(C)p.r(A)p.r(U)p.r(C)p.r(C)p.r(U)p.r(A)p.d(T)p.d(T)}|RNA2{r(U)p.r(A)p.r(G)p.r(G)p.r(A)p.r(U)p.r(G)p.r(C)p.r(C)p.r(A)p.r(U)p.r(A)p.r(U)p.r(U)p.r(U)p.r(U)p.r(A)p.r(G)p.r(U)p.d(G)p.d(A)}$$$RNA1{StrandType:ss}|RNA2{StrandType:as}$,76
9,RNA1{r(A)p.r(C)p.r(U)p.r(A)p.r(U)p.r(U)p.r(G)p.r(G)p.r(C)p.r(A)p.r(G)p.r(C)p.r(U)p.r(G)p.r(C)p.r(A)p.r(G)p.r(A)p.r(G)p.d(T)p.d(T)}|RNA2{r(C)p.r(U)p.r(C)p.r(U)p.r(G)p.r(C)p.r(A)p.r(G)p.r(C)p.r(U)p.r(G)p.r(C)p.r(C)p.r(A)p.r(A)p.r(U)p.r(A)p.r(G)p.r(U)p.d(G)p.d(C)}$$$RNA1{StrandType:ss}|RNA2{StrandType:as}$,62
10,RNA1{r(A)p.r(G)p.r(A)p.r(A)p.r(A)p.r(C)p.r(A)p.r(U)p.r(A)p.r(C)p.r(C)p.r(C)p.r(A)p.r(U)p.r(U)p.r(U)p.r(A)p.r(A)p.r(U)p.d(T)p.d(T)}|RNA2{r(A)p.r(U)p.r(U)p.r(A)p.r(A)p.r(A)p.r(U)p.r(G)p.r(G)p.r(G)p.r(U)p.r(A)p.r(U)p.r(G)p.r(U)p.r(U)p.r(U)p.r(C)p.r(U)p.d(G)p.d(G)}$$$RNA1{StrandType:ss}|RNA2{StrandType:as}$,72.3
11,RNA1{r(A)p.r(G)p.r(A)p.r(C)p.r(A)p.r(C)p.r(A)p.r(C)p.r(C)p.r(A)p.r(U)p.r(A)p.r(U)p.r(G)p.r(A)p.r(A)p.r(G)p.r(G)p.r(A)p.d(T)p.d(T)}|RNA2{r(U)p.r(C)p.r(C)p.r(U)p.r(U)p.r(C)p.r(A)p.r(U)p.r(A)p.r(U)p.r(G)p.r(G)p.r(U)p.r(G)p.r(U)p.r(G)p.r(U)p.r(C)p.r(U)p.d(G)p.d(G)}$$$RNA1{StrandType:ss}|RNA2{StrandType:as}$,81

# Biological target: P2RX3
# Experiment: reporter assay of Huesken 2005
# Details: siRNA
row,Substance,normalised inhibition (eCFP-eYFP dual reporter) [%]
1,sense rGrGrUrGrArArUrGrArGrArCrUrArCrGrCrUrGdTdT / antisense rCrArGrCrGrUrArGrUrCrUrCrArUrUrCrArCrCdTdC,87.3
2,sense rGrUrArCrCrGrCrArCrCrCrUrCrCrUrGrArArGdTdT / antisense rCrUrUrCrArGrGrArGrGrGrUrGrCrGrGrUrArCdTdC,37.1
3,sense rUrArArCrCrArArGrGrUrGrArArGrGrGrCrUrCdTdT / antisense rGrArGrCrCrCrUrUrCrArCrCrUrUrGrGrUrUrAdCdC,16.2
4,sense rUrArGrGrGrUrGrGrGrUrUrUrUrCrUrUrGrCrAdTdT / antisense rUrGrCrArArGrArArArArCrCrCrArCrCrCrUrAdCdA,82.2
5,sense rUrCrArCrUrArUrUrUrUrCrArUrCrArArGrArAdTdT / antisense rUrUrCrUrUrGrArUrGrArArArArUrArGrUrGrAdAdG,79.6
6,sense rUrCrArGrArCrArGrCrCrArGrUrGrCrGrGrGrCdTdT / antisense rGrCrCrCrGrCrArCrUrGrGrCrUrGrUrCrUrGrAdTdA,23.8
7,sense rUrCrCrUrCrArCrUrGrGrCrCrGrCrUrGrCrGrUdTdT / antisense rArCrGrCrArGrCrGrGrCrCrArGrUrGrArGrGrAdTdC,16.4
8,sense rUrCrCrUrGrCrUrCrArArCrUrUrCrCrUrCrArAdTdT / antisense rUrUrGrArGrGrArArGrUrUrGrArGrCrArGrGrAdTdG,90.3
9,sense rUrCrGrGrCrUrGrGrGrUrGrUrGrCrGrArCrUrUdTdT / antisense rArArGrUrCrGrCrArCrArCrCrCrArGrCrCrGrAdTdC,77.1
10,sense rUrCrGrGrUrCrUrUrUrGrUrCrArUrCrArUrCrAdTdT / antisense rUrGrArUrGrArUrGrArCrArArArGrArCrCrGrAdGdG,72.8
11,sense rUrCrUrUrGrCrGrGrGrUrArGrGrGrGrArCrGrUdTdT / antisense rArCrGrUrCrCrCrCrUrArCrCrCrGrCrArArGrAdTdG,75.9
12,sense rUrGrArCrArGrCrCrArGrGrGrArCrArUrGrArAdTdT / antisense rUrUrCrArUrGrUrCrCrCrUrGrGrCrUrGrUrCrAdGdG,90.5
13,sense rUrGrCrArUrCrCrCrCrArArArUrArCrUrCrCrUdTdT / antisense rArGrGrArGrUrArUrUrUrGrGrGrGrArUrGrCrAdCdT,56.3
14,sense rUrGrCrCrGrCrUrUrCrCrArCrCrCrGrGrArCrAdTdT / antisense rUrGrUrCrCrGrGrGrUrGrGrArArGrCrGrGrCrAdGdG,93.7
15,sense rUrGrGrUrGrCrCrCrCrArCrGrGrArGrGrUrGrGdTdT / antisense rCrCrArCrCrUrCrCrGrUrGrGrGrGrCrArCrCrAdGdC,13.5
16,sense rUrGrUrCrUrGrArUrUrArCrGrUrGrArCrGrCrCdTdT / antisense rGrGrCrGrUrCrArCrGrUrArArUrCrArGrArCrAdCdA,43.1
17,sense rUrUrArArGrArUrCrGrGrCrUrGrGrGrUrGrUrGdTdT / antisense rCrArCrArCrCrCrArGrCrCrGrArUrCrUrUrArAdTdG,55.4
18,sense rUrUrCrArGrCrUrUrCrUrGrArUrCrArUrCrUrCdTdT / antisense rGrArGrArUrGrArUrCrArGrArArGrCrUrGrArAdCdT,46.8
19,sense rUrUrCrUrGrCrCrCrArGrArGrArGrUrGrArGrGdTdT / antisense rCrCrUrCrArCrUrCrUrCrUrGrGrGrCrArGrArAdTdC,44.3
20,sense rUrUrGrCrGrGrGrGrCrArGrGrArUrUrUrUrGrCdTdT / antisense rGrCrArArArArUrCrCrUrGrCrCrCrCrGrCrArAdAdC,33.4
21,sense rUrUrGrUrUrArCrUrGrArArArArUrCrArGrArUdTdT / antisense rArUrCrUrGrArUrUrUrUrCrArGrUrArArCrArAdTdC,54.1
22,sense rUrUrUrCrUrGrCrCrCrCrArUrCrUrUrGrCrGrGdTdT / antisense rCrCrGrCrArArGrArUrGrGrGrGrCrArGrArArAdGdG,35.2
23,sense rUrUrUrGrCrCrArArArCrUrGrGrCrGrCrGrCrAdTdT / antisense rUrGrCrGrCrGrCrCrArGrUrUrUrGrGrCrArArAdAdT,37.3
